Reference: patent publication US9067945B2, “Selective phosphodiesterase 9A inhibitors as medicaments for improving cognitive processes” (Boehringer Ingehleim International GmbH, priority 2002, dated 2015)
“Also recorded” adds a separate entry of the source. Values belong to the compound of their own block, whether it stands above or below them.

Tests used:
[1] = test system: primary rat (E18) cortex cultures, intracellular cGMP; assay: Increasing the intracellular neuronal cGMP concentration in cell cultures; format: cell-based; details: primary rat cortical neurons, incubation 20 min, FIG. 1
Experimental: Rat embryos (embryonic day E17-E19) were decapitated, and the heads were transferred into dissection dishes filled with dissection medium (DMEM, penicillin/streptomycin; both from Gibco). The scalp and the roof of the skull were removed, and the exposed brains were transferred into another Petri dish with dissection medium. Using a binocular microscope and two forceps, the cerebrum (cortex) was isolated and cooled to 4° C. with ice. This dissection and the isolation of the cortical neurons were then carried out in accordance with a standard protocol using the Papain kit (Worthington Biochemical Corporation, Lakewood, N.J. 08701, USA) (Huettner et al. J. Neurosci. 1986, 6, 3044-3060). The mechanically isolated cortical neurons were cultivated at 150,000 cells/well in 200 μl of neurobasal medium/well (neurobasal; B27 supplement; 2 mM L-glutamine; in the presence of penicillin/streptomycin; all agents from Gibco) in 96-well plates (pretreated with poly-D-lysine/100 μg/ml for 30 min) under standard conditions (37° C., 5% CO2) for 7 days. After 7 days, the medium was removed and the cells were washed with HBSS buffer (Hank's balanced salt solution, Gibco/BRL). […] Subsequently, the cells were lyzed in 200 μl of lysis buffer (cGMP kit code RPN 226; from Amersham Pharmacia Biotech.), and the cGMP concentration was measured as stated by the manufacturer. […]

[2] = target: PDE5A (Homo sapiens (Human), UniProt O76074); assay: PDE inhibition, recombinant PDE5A (SPA); format: biochemical; details: Isoenzyme PDE5A
Text: (§1) Recombinant PDE1C (GenBank/EMBL Accession Number: NM_005020, Loughney et al. J. Biol. Chem. 1996 271, 796-806), PDE2A (GenBank/EMBL Accession Number: NM_002599, Rosman et al. Gene 1997 191, 89-95), PDE3B (GenBank/EMBL Accession Number: NM_000922, Miki et al. Genomics 1996, 36, 476-485), PDE4B (GenBank/EMBL Accession Number: NM_002600, Obernolte et al. Gene. 1993, 129, 239-247), PDE5A (GenBank/EMBL Accession Number: NM_001083, Loughney et al. Gene 1998, 216, 139-147), PDE7B (GenBank/EMBL Accession Number: NM_018945, Hetman et al. Proc. Natl. Acad. Sci. U.S.A. 2000, 97, 472-476), PDE8A (GenBank/EMBL Accession Number: AF—056490, Fisher et al. Biochem. Biophys. Res. Commun. […]
(§2) The test substances are dissolved in 100% DMSO and serially diluted to determine their in vitro effect on PDE 9A. […] The plates are then measured for 30 s per well in a Microbeta scintillation counter (Wallac Inc., Atlanta, Ga.). IC50 values are determined from the graphical plot of the substance concentration versus the percentage inhibition.
(§3) The in vitro effect of test substances on recombinant PDE3B, PDE4B, PDE7B, PDE8A, PDE10A and PDE11A is determined in accordance with the assay protocol described above for PDE9A with the following adaptations: [5′,8-^3H] adenosine 3′,5′-cyclic phosphate (1 μCi/μL; Amersham Pharmacia Biotech., Piscataway, N.J.) is used as substrate. […]

[3] = test system: rats, learning and memory; assay: Social recognition test; format: in vivo, rat; details: intraperitoneal 0.1-3.0 mg/kg directly after trial 1, retention time 24 hours, FIG. 3
Experimental: Adult rats housed in groups were placed singly in test cages 30 min before the start of the test. Four minutes before the start of the test, the test animal was put in an observation box. After this adaptation time, a juvenile animal was put in with the test animal and the absolute time for which the adult animal inspected the young one was measured for 2 min (trial 1). All behaviors clearly directed at the young animal were measured, i.e. anogenital inspection, pursuit and grooming, during which the old animal was no further than 1 cm from the young animal. The juvenile was then removed, and the adult was treated with Example 2 or vehicle and subsequently returned to its own cage. The test was repeated after a retention time of 24 hours (trial 2). A diminished social interaction time compared with trial 1 would indicate that the adult rat remembers the young animal.
The adult animals received intraperitoneal injections directly following trial 1 either with vehicle (10% ethanol, 20% Solutol, 70% physiological saline) or 0.1 mg/kg, 0.3 mg/kg, 1.0 mg/kg or 3.0 mg/kg of Example 2 dissolved in 10% ethanol, 20% Solutol, 70% physiological saline. […] They had consequently forgotten that they had already had contact with the young animal.

[4] = target: PDE2A (Homo sapiens (Human), UniProt O00408); assay: PDE inhibition, recombinant PDE2A (SPA); format: biochemical; details: Isoenzyme PDE2A
Text: as §1, §2, §3

[5] = target: PDE7B (Homo sapiens (Human), UniProt Q9NP56); assay: PDE inhibition, recombinant PDE7B (SPA); format: biochemical; details: Isoenzyme PDE7B
Text: as §1, §2, §3

[6] = target: PDE8A (Homo sapiens, UniProt O60658); assay: PDE inhibition, recombinant PDE8A (SPA); format: biochemical; details: Isoenzyme PDE8A
[7] = target: PDE11 (Homo sapiens (Human), UniProt Q9HCR9); assay: PDE inhibition, recombinant PDE11A (SPA); format: biochemical; details: Isoenzyme PDE11, human
Text: as §1, §2, §3

[8] = target: PDE10A (Homo sapiens (Human), UniProt Q9Y233); assay: PDE inhibition, recombinant PDE10A (SPA); format: biochemical; details: Isoenzyme PDE10A
Text: as §1, §2, §3

[9] = target: PDE4B (Homo sapiens (Human), UniProt Q07343); assay: PDE inhibition, recombinant PDE4B (SPA); format: biochemical; details: Isoenzyme PDE4B
[10] = test system: rat hippocampus slices, fEPSP after weak tetanus; assay: Long-term potentiation in hippocampus slices; details: 10 μM, flushed in 10 minutes before to 30 minutes after weak tetanus, vs 0.01% DMSO control, FIG. 2
[11] = target: PDE3B (Homo sapiens (Human), UniProt Q13370); assay: PDE inhibition, recombinant PDE3B (SPA); format: biochemical; details: Isoenzyme PDE3B
Text: as §1, §2, §3

[12] = target: Human PDE9A (Homo sapiens (Human), UniProt O76083); details: concentrations of up to 100 μM; cited from earlier work
[13] = target: Murine PDE9A (Mus musculus (Mouse), UniProt O70628); details: concentrations below 200 μM; cited from earlier work
Chain of Murine PDE9A (O70628 whole entry): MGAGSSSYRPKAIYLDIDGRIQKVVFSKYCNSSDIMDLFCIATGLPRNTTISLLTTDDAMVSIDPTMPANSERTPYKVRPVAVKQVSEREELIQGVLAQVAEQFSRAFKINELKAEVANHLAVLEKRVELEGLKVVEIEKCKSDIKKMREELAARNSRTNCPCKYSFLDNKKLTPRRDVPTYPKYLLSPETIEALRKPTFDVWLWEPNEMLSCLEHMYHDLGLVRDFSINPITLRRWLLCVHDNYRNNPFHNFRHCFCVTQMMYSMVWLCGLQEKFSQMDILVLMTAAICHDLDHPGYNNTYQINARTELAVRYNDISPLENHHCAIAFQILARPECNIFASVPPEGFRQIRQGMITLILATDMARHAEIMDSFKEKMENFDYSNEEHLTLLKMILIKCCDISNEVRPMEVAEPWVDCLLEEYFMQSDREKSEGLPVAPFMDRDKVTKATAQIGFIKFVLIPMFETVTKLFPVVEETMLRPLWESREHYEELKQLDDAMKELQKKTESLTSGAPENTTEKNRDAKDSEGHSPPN

Chain of Human PDE9A (O76083 whole entry): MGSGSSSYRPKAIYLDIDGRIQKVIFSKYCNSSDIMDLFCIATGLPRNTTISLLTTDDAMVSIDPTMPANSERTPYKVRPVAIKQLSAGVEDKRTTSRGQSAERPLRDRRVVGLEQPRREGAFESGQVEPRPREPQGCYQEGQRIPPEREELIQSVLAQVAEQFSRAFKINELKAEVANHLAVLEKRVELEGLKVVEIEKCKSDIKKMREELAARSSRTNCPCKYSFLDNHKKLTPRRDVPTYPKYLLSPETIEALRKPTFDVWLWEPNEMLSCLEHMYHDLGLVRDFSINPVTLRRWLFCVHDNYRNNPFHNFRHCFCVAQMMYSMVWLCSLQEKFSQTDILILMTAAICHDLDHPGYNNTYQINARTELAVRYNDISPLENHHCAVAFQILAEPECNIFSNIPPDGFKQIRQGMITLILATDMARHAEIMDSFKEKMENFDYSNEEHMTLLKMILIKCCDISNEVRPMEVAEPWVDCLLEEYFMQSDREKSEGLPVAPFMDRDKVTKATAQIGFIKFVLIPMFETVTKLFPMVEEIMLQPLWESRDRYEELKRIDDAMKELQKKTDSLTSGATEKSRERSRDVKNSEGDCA
Chain of PDE4B (Q07343 other isoform, or with tags, fused parts or gaps isoform Q07343-2): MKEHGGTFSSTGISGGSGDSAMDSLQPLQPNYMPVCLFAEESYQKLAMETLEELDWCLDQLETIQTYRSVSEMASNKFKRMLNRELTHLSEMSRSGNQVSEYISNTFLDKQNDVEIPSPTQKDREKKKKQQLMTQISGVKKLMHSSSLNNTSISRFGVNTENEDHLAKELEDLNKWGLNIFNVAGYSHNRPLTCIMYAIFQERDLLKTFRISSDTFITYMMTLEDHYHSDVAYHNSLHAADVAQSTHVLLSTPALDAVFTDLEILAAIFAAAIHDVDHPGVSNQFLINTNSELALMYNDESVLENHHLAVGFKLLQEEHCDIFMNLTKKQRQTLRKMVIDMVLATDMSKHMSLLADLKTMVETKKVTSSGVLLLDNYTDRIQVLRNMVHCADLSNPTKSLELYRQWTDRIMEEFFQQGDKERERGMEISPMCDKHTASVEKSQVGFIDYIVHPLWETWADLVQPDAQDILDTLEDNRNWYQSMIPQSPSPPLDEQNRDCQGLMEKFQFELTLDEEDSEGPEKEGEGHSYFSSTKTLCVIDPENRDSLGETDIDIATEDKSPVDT
Chain of PDE3B (Q13370 whole entry): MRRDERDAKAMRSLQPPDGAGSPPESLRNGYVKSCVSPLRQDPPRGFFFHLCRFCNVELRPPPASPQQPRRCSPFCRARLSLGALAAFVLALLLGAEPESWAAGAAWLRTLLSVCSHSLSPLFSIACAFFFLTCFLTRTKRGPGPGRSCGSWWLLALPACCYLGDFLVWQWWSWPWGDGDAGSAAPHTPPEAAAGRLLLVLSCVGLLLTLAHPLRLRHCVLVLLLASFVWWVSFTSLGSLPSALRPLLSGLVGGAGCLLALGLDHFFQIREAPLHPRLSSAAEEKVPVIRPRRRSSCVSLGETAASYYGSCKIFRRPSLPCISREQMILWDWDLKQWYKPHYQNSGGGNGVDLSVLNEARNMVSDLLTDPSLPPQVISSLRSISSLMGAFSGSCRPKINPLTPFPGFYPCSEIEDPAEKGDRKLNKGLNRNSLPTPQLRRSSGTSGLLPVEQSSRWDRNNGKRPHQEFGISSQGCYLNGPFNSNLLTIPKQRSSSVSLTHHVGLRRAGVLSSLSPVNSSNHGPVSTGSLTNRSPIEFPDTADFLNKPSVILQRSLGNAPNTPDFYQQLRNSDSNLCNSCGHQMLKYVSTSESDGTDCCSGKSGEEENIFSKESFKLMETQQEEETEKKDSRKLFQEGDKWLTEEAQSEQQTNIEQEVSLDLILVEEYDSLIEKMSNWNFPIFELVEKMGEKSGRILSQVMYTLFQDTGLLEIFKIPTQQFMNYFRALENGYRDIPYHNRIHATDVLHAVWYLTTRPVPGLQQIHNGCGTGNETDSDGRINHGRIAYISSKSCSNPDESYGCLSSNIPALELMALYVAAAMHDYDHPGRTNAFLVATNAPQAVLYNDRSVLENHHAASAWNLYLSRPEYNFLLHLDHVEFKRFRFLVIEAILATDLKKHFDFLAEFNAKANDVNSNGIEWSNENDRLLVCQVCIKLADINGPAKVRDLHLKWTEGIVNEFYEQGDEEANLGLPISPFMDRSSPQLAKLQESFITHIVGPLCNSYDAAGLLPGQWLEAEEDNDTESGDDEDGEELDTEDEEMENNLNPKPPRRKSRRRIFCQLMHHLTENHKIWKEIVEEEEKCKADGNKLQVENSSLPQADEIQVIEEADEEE
Chain of PDE7B (Q9NP56 whole entry): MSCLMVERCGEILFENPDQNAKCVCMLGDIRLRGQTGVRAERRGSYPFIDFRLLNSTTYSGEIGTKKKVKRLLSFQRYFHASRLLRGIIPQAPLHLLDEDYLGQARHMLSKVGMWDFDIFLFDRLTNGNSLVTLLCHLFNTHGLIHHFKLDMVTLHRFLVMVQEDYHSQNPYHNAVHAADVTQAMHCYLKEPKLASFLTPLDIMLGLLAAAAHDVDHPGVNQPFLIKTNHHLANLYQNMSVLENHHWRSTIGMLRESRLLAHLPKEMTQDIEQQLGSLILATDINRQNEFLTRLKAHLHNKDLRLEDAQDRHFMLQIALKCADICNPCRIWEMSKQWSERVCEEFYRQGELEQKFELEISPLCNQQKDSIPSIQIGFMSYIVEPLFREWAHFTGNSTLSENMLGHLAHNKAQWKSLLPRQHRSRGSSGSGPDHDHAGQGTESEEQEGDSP
Chain of PDE2A (O00408 whole entry): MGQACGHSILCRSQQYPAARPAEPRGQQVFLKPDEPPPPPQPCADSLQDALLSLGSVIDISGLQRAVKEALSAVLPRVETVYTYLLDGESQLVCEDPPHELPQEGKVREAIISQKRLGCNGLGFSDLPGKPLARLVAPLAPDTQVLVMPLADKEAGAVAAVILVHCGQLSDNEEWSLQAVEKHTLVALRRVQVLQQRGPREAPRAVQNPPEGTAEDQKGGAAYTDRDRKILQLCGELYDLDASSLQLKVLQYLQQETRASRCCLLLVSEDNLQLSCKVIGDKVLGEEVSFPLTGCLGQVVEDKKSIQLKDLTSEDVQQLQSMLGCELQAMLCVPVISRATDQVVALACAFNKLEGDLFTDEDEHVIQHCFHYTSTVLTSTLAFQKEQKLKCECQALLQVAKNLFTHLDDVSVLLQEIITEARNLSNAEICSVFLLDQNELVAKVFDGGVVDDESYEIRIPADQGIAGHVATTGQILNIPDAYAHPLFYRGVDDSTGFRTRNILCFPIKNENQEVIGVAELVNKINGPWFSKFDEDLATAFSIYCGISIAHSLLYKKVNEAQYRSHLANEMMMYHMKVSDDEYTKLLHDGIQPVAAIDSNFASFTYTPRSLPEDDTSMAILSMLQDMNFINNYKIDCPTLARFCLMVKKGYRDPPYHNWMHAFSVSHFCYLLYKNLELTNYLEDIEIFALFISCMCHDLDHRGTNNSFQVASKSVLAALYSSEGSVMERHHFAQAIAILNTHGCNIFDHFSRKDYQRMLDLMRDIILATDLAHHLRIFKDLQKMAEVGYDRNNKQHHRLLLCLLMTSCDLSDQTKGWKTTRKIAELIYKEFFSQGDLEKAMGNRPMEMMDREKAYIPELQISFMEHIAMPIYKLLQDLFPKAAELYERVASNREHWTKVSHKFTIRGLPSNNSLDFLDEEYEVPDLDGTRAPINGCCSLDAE
Chain of PDE11 (Q9HCR9 445-933, change not shown): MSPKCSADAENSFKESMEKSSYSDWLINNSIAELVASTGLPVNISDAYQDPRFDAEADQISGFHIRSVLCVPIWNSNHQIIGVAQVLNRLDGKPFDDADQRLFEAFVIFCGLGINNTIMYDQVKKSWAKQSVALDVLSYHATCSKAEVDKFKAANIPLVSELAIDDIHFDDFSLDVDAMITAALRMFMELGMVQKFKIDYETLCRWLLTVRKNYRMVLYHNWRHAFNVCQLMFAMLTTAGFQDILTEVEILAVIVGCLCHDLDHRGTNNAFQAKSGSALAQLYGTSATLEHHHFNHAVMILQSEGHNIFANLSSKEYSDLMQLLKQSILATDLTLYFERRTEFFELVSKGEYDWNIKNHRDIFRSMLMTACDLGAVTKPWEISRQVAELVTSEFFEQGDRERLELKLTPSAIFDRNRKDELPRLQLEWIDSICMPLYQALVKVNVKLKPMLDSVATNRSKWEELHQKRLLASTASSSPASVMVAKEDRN

melting point: 147 °C
Compound: O=c1[nH]c(CC2CCCCC2)nc2c1cnn2C1CCCC1

IC50 [2]: > 4 µM | IC50 [4]: > 4 µM | melting point: 122 °C | IC50 [5]: > 4 µM | IC50 [6]: > 4 µM | IC50 [7]: > 4 µM | IC50 [8]: > 4 µM | IC50 [9]: > 4 µM | IC50 [11]: > 4 µM
Compound: CCC(CC)n1ncc2c(=O)[nH]c(CC3CCCCC3)nc21 [Example 2, 6-(Cyclohexylmethyl)-1-(1-ethylpropyl)-1,5-dihydro-4H-pyrazolo[3,4-d]-pyrimidin-4-one]
cGMP content of primary neurons [1]: increase in the cGMP content | social interaction time in trial 2 compared with vehicle [3]: significantly reduced | LTP / potentiation of fEPSP after weak tetanus [10]: significant increase in the LTP; also recorded: significantly augmented the increase in the fEPSP

Compound: CC(C)Cn1c(=O)n(C)c(=O)c2[nH]cnc21 [IBMX]
inhibition on the isolated enzyme [12]: no inhibition | inhibition of murine PDE9A [13]: not inhibited

Compound: CC(=O)Nc1ccc(-c2c[nH]c(=O)cn2)cc1 [SKF94120]
inhibition on the isolated enzyme [12]: no inhibition

Compound: OCCN(CCO)c1nc(N2CCCCC2)c2nc(N(CCO)CCO)nc(N3CCCCC3)c2n1 [dipyridamole]
inhibition on the isolated enzyme [12]: no inhibition

Compound: COc1ccc(C2CNC(=O)C2)cc1OC1CCCC1 (stereo not shown) [rolipram]
inhibition on the isolated enzyme [12]: no inhibition

Compound: CCOC(=O)C1=C[C@]2(CC)CCCN3CCc4c(n1c1ccccc41)[C@@H]32 [vinpocetine]
inhibition on the isolated enzyme [12]: no inhibition
